Columns and labels:
[1] = PRG release from formulation; type: physicochemical; conditions: as an aqueous eye drop
[2] = test system: Dutch belted rabbits; assay: Single-drop IOP-lowering efficacy of PRG eye drop formulations; type: in vivo
Description: At 24 hours after dosing, IOP is still reduced by >20%.
Moreover, the combined effect of all three layers of our W/O/W ME is critical for enhancing the efficacy of PRG. […] Using this same model, we will evaluate our optimized formulations from Test 1.1.
Research Design and Methods: Dutch belted rabbits (Envigo Rabbitry; formerly Covance) will be used in this single-dose design study. Rabbits from this rabbitry can have higher baseline IOP values than those purchased from other rabbitries. Rabbits (equally balanced between males and females) will be acclimated to handling and IOP measurements for at least seven days before initiation of the study. Slit-lamp biomicroscopic and fundoscopic examinations will be performed before and after the study. Our top three formulations from Test 1.1 will be tested in this model using our methods^12. The IOP of both eyes will be measured using a rebound tonometer (Tono-Pen AVIA Vet, Reichert) immediately before the formulation application (baseline, 8 am) and at hourly time intervals after application until the IOP returns to baseline. Using a sterile micropipette tip, thirty microliters of the formulation containing PRG ME or blank control will be instilled topically into one eye of each rabbit, while the fellow eye will receive the formulation vehicle, and therefore serve as controls. Rabbits will be dosed daily at 8 am for 21 days, and IOP collected at 8 am (immediately pre-dosing) and at the time at which the maximum IOP reduction is measured (Tmax) using our methods^12. Curves similar to FIG. 16 will be generated. Biocompatibility of the antioxidant-containing formulations will be assessed using with slit lamp biomicroscopy as in FIG. 17. The person performing the studies will be blinded regarding which eye receives the medicated formation and which one receives the blank control for each rabbit. Assuming a power of 80%, and a marginal difference in IOP outcome of 30%, we estimate that this study will require 10 rabbits. We will also evaluate these formulations in C57Bl/6J (B6) mice and cynomolgus monkeys, which will allow for species confirmation and comparison.

[3] = test system: γ-aminobutyric acid (GABA) receptors; conditions: cited from earlier work
[4] = target: CACNA2D1 (Homo sapiens, UniProt P54289); conditions: listed as PRG; cited from earlier work
[5] = test system: intraocular pressure (IOP); assay: IOP lowering by topically applied pregabalin without microemulsion (aqueous); type: in vivo
[6] = test system: BXD29 mice; assay: Daily topical PRG ME in BXD29 mice (normal tension glaucoma model): IOP and optic nerve axons; type: in vivo
From the text: Objective: An obstacle in this study is the in vivo assessment of any direct neuroprotective effects of PRG that are independent of IOP lowering. […] These characteristics make BXD29 ideal for evaluating the direct neuroprotective properties of PRG on RGCs by eliminating indirect effects that would be mediated through IOP reduction.
We have evidence to show, without wishing to be bound by theory, that topical dosing with our PRG ME is neuroprotective to RGC axons in the ON. We dosed BXD29 mice daily with PRG ME beginning at 5 weeks of age (FIG. 9A) before ON degeneration was marked. […] In contrast, ON from mice dosed with unmedicated ME had loss of axon profiles and increased areas of debris (FIG. 9C). The studies will evaluate the role of PRG as a RGC neuroprotectant and define its cellular mechanism of action.

[7] = PRG in an oral solution; cited from earlier work
[8] = not told; cited from earlier work
[9] = PRG in the absence of the ME (Carbopol 981 gel), single drop
[10] = topically applied PRG, aqueous / initial formulation without ME
[11] = topically applied PRG, aqueous / initial formulation without ME, listed as PRG

Chain of CACNA2D1 (P54289 25-1103): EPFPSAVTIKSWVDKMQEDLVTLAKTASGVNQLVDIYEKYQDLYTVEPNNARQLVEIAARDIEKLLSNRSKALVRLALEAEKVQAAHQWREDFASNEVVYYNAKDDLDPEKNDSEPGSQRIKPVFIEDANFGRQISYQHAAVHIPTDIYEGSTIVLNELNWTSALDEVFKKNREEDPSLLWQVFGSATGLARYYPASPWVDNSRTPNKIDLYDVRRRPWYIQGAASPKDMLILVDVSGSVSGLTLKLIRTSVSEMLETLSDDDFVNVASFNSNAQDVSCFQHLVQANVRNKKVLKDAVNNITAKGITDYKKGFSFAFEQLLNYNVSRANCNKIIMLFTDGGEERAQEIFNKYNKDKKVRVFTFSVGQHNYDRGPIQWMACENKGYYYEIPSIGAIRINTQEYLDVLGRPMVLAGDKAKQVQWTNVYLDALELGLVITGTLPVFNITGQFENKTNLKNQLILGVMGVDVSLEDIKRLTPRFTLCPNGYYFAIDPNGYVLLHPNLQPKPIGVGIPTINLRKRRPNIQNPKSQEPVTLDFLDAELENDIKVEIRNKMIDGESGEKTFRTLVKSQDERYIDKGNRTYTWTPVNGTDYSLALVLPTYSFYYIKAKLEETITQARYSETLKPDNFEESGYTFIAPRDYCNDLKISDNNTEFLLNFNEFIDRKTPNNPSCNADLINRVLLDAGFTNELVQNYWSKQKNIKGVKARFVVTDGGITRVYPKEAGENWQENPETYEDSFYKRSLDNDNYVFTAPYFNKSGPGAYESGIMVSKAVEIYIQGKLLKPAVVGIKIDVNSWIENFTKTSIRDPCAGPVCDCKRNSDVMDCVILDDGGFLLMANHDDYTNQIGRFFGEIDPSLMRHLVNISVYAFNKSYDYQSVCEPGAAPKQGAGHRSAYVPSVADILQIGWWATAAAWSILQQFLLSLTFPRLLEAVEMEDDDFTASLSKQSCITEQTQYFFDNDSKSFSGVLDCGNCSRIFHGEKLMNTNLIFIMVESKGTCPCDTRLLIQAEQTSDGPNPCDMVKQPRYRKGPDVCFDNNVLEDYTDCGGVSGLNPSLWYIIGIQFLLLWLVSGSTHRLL

## CC(C)C[C@H](CN)CC(=O)O [pregabalin]
[1]
  PRG release time: 3 h
[2]; PRG in the absence of the ME
  AUC of IOP reduction: 38 mmHg·hr
[2]; [9]
  IOP reduction: 30%
  time at which IOP returns to baseline: 10 h
[2]; topical dosing with PRG, Dutch belted rabbits
  IOP lowering, dose dependence: dose dependent manner
[3]
  binding to GABA receptors: does not bind
[4]
  affinity for CACNA2D1: high affinity and specificity
[5]; topical dosing
  IOP lowering, dose dependence: dose dependent manner
[5]; [10]
  IOP reduction: 20%
  time at which IOP returns to baseline: ≤ 7 h
[5]; [11]
  IOP reduction: 17%
  time at which IOP returns to baseline: 6 h
[5]; without the microemulsion
  IOP lowering: about 20%
  time at which IOP returns to baseline: 8 to 10 h
[6]; daily topical dosing for 6 weeks from 5 weeks of age
  optic nerve (ON) axons: prevents degeneration of axons
[6]; topical dosing, up to 6 weeks daily
  IOP response: unresponsive
[7]
  chemical stability: > 1 year
[8]
  membrane permeability: high

— patent publication US20240156765A1, “METHODS OF NEUROPROTECTION AND USES THEREOF” (UNIVERSITY OF TENNESSEE RESEARCH FOUNDATION, priority 2020, published 2024)
